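Cultured in 96-well plates, cells were exposed to test compound for 48 hours across five concentrations. TGI: total growth inhibition.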
Experiments:
Test in all cases: NCI anticancer screen, dose series, 48 h
DLD-1 colon = test system: DLD-1 colon
DMS 114 small cell lung = test system: DMS 114 small cell lung
HOP-18 NSCLC = test system: HOP-18 NSCLC
HOP-62 NSCLC = test system: HOP-62 NSCLC
KM20L2 colon = test system: KM20L2 colon
LXFL 529 NSCLC = test system: LXFL 529 NSCLC
M19-MEL melanoma = test system: M19-MEL melanoma
RPMI-8226 leukemia = test system: RPMI-8226 leukemia
RXF-631 renal = test system: RXF-631 renal
SN12C renal = test system: SN12C renal
SNB-78 CNS = test system: SNB-78 CNS
XF 498 CNS = test system: XF 498 CNS
DMS 273 small cell lung = test system: DMS 273 small cell lung

Structure (SMILES)	TGI (DLD-1 colon)	TGI (DMS 114 small cell lung)	TGI (HOP-18 NSCLC)	TGI (HOP-62 NSCLC)	TGI (KM20L2 colon)	TGI (LXFL 529 NSCLC)	TGI (M19-MEL melanoma)	TGI (RPMI-8226 leukemia)	TGI (RXF-631 renal)	TGI (SN12C renal)	TGI (SNB-78 CNS)	TGI (XF 498 CNS)	TGI (DMS 273 small cell lung)
COc1ccc2c(c1)[n+]([O-])c(/C(C)=N/NC(=O)c1ccccc1O)c(C)[n+]2[O-]	> 100 µM	> 100 µM	> 100 µM	> 100 µM	> 100 µM	> 100 µM	> 100 µM	> 100 µM	> 100 µM	> 100 µM	> 100 µM	> 100 µM	
CCN(CC)Cc1cc(Nc2ccnc3ccc4nn(C)nc4c23)ccc1O				36.8 µM	25.3 µM	27.6 µM	24.7 µM	> 100 µM	31.3 µM	86 µM	44.9 µM	24.3 µM	
Cc1nc2c3c(ccc2[nH]c1=O)C(=O)c1ccccc1C3=O	> 100 µM	> 100 µM	> 100 µM	> 100 µM	> 100 µM	> 100 µM	> 100 µM			> 100 µM		> 100 µM	
CC(C)c1ccc(/C=C/c2cc(C(=O)NNC(=O)NC3CCCCC3)nc(=S)[nH]2)cc1	> 100 µM	> 100 µM	> 100 µM	> 100 µM	> 100 µM	> 100 µM	> 100 µM	> 100 µM	> 100 µM	> 100 µM	> 100 µM	> 100 µM	> 100 µM
O=C(O)c1ccc([C@@H]2C(=O)N(O)[C@@H]3C=CC[C@@H]32)cc1	> 100 µM	> 100 µM		> 100 µM		> 100 µM	> 100 µM	> 100 µM	> 100 µM	> 100 µM	> 100 µM	> 100 µM	> 100 µM
O=C(O)c1c2c(cc3c(=O)cc(-c4ccccc4)oc13)CCCC2	> 100 µM			> 100 µM	> 100 µM	> 100 µM		> 100 µM	> 100 µM	> 100 µM	> 100 µM	> 100 µM	> 100 µM
Cc1ccc(-c2nnc3s/c(=C\c4ccc(N(C)C)cc4)c(=O)n23)cc1	> 100 µM	> 100 µM	> 100 µM	> 100 µM	> 100 µM	> 100 µM	> 100 µM	> 100 µM	> 100 µM	> 100 µM	> 100 µM	> 100 µM	> 100 µM
COc1ccccc1NC(=O)CC(=O)N1N=C(c2ccccc2)C(N=Nc2ccc(Cl)cc2)C1=O (stereo unspecified)	> 100 µM	> 100 µM		48.6 µM	> 100 µM	> 100 µM	> 100 µM	> 100 µM	> 100 µM	> 100 µM	> 100 µM	> 100 µM	> 100 µM
COc1ccc(/C=C/C(=O)c2sc(-c3cccnc3)nc2C)cc1	> 100 µM	> 100 µM	> 100 µM	> 100 µM	> 100 µM		> 100 µM	26.2 µM	> 100 µM	> 100 µM	> 100 µM		> 100 µM
COc1cc(CNc2cnc3ccc(N)cc3n2)cc(OC)c1OC		> 100 µM	> 100 µM	> 100 µM	> 100 µM	> 100 µM	> 100 µM	> 100 µM		> 100 µM	> 100 µM		> 100 µM
CC(=O)NNc1nc(C)c(C(=O)/C=C/c2ccc(Cl)c(Cl)c2)s1	> 100 µM	> 100 µM	> 100 µM	> 100 µM	> 100 µM		> 100 µM	> 100 µM	> 100 µM	> 100 µM	> 100 µM		> 100 µM

— PubChem BioAssay (NCI)
